Data published in ChEMBL document CHEMBL1128910, “Time-dependent inactivation of steroid C17(20) lyase by 17-cyclopropyl ether-substituted steroids” (Bioorg Med Chem Lett, 1996).

Key:
[1] = molecular target: T1, Steroid 17-alpha-hydroxylase/17,20 lyase (Homo sapiens, UniProt P05093); assay: Inhibition of cynomolgus monkey Cytochrome P450 steroid 17-alpha-hydroxylase/17,20 lyase at 1 uM preincubation time 40 minutes
T1 sequence (P05093 whole entry): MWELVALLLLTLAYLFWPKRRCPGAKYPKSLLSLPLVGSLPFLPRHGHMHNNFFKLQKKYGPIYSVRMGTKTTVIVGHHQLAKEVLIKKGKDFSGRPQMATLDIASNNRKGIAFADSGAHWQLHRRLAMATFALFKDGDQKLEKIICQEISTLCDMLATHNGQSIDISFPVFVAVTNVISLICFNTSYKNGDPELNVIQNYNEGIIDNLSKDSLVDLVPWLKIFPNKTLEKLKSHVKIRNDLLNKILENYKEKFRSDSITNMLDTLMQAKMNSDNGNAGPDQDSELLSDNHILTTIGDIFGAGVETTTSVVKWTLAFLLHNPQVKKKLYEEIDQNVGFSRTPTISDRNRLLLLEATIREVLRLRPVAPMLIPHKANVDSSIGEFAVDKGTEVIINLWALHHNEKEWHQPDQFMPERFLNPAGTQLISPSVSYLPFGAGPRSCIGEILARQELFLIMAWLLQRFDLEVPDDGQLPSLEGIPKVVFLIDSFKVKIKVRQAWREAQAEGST

[2] = molecular target: T1, Steroid 17-alpha-hydroxylase/17,20 lyase; assay: Inhibition of cynomolgus monkey Cytochrome P450 steroid 17-alpha-hydroxylase/17,20 lyase at 1 uM
[3] = molecular target: T1, Steroid 17-alpha-hydroxylase/17,20 lyase; assay: Inhibition of cynomolgus monkey Cytochrome P450 steroid 17-alpha-hydroxylase/17,20 lyase at 0.1 uM pre-incubation time of 40 minutes
[4] = molecular target: T1, Steroid 17-alpha-hydroxylase/17,20 lyase; assay: Inhibition of cynomolgus monkey Cytochrome P450 steroid 17-alpha-hydroxylase/17,20 lyase at 0.1 uM
[5] = molecular target: T1, Steroid 17-alpha-hydroxylase/17,20 lyase; assay: Inhibition of human Cytochrome P450 steroid 17-alpha-hydroxylase/17,20 lyase at 0.8 uM
[6] = molecular target: T1, Steroid 17-alpha-hydroxylase/17,20 lyase; assay: Inhibition of human Cytochrome P450 steroid 17-alpha-hydroxylase/17,20 lyase at 0.8 uM pre-incubation time 30 minutes

Compound C[C@]12CCC(=O)C=C1C(=O)CC1C2CC[C@@]2(C)C1CC[C@@H]2OC1CC1 (stereo partly specified) has an inhibition at 1 µM [1] of 79%, an inhibition at 1 µM [2] of 52% and an inhibition at 0.1 µM [3] of 51%. For the same compound, the inhibition at 0.1 µM [4] was 17%.

Work on C[C@]12CCC3C(CCC4=CC(=O)[C@H]5COC[C@]43C5)C1CC[C@@H]2OC1CC1 (stereo partly specified) yielded an inhibition at 0.8 µM [5] of 1% and an inhibition at 0.8 µM [6] of 17%.

In the case of CC1(C)C2=CCC3C(CC[C@@]4(C)C3CC[C@@H]4OC3CC3)[C@@]2(C)CC[C@@H]1O (stereo partly specified), the inhibition at 0.8 µM [5] is reported as 0% and the inhibition at 0.8 µM [6] is reported as 0%.

With C[C@]12CCC(=O)C=C1CCC1C2CC[C@@]2(C)C1CC[C@@H]2OC1CC1 (stereo partly specified) the inhibition at 1 µM [1] was 90%, the inhibition at 1 µM [2] was 73% and the inhibition at 0.1 µM [3] was 55%. For the same compound, the inhibition at 0.1 µM [4] was 26%.

In the case of C[C@]12CC[C@H](O)CC1=CCC1C2CC[C@@]2(C)C1CC[C@@H]2OC1CC1 (stereo partly specified), the inhibition at 0.8 µM [5] is reported as 11% and the inhibition at 0.8 µM [6] is reported as 64%.

C[C@]12CCC3C(CC=C4C[C@@H](O)[C@H]5COC[C@]43C5)C1CC[C@@H]2OC1CC1 (stereo partly specified) was tested, and the inhibition at 0.8 µM [5] was 0% and the inhibition at 0.8 µM [6] was 0%.
